This note sets out measurements from ChEMBL document CHEMBL3351327, “Synthesis of some novel hydrazone and 2-pyrazoline derivatives: monoamine oxidase inhibitory activities and docking studies” (Bioorg Med Chem Lett, 2014).

The target in test [1] is T1, Amine oxidase [flavin-containing] A (Homo sapiens, UniProt P21397).
T1 sequence (P21397 whole entry): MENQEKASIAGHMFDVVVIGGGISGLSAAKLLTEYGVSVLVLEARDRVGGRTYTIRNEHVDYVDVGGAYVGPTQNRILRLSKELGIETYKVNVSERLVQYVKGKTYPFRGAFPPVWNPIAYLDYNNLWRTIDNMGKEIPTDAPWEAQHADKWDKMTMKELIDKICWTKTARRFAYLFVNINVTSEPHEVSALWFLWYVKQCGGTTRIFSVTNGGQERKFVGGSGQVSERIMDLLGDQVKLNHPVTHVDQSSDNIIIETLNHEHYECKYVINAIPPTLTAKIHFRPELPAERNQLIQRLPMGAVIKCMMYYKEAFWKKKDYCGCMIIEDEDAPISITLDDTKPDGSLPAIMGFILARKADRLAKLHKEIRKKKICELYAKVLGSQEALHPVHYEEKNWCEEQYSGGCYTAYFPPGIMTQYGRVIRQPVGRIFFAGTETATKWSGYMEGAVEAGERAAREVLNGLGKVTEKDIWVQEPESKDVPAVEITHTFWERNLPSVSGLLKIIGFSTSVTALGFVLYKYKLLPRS
Nature of the test: biochemical. The class given is cell-based.
Description: Inhibition of human MAOA expressed in baculovirus-infected BTI insect cells assessed as H2O2 production by resorufin dye based fluorimetric method

The target in test [2] is T2, Amine oxidase [flavin-containing] B (Homo sapiens, UniProt P27338).
T2 sequence (P27338 whole entry): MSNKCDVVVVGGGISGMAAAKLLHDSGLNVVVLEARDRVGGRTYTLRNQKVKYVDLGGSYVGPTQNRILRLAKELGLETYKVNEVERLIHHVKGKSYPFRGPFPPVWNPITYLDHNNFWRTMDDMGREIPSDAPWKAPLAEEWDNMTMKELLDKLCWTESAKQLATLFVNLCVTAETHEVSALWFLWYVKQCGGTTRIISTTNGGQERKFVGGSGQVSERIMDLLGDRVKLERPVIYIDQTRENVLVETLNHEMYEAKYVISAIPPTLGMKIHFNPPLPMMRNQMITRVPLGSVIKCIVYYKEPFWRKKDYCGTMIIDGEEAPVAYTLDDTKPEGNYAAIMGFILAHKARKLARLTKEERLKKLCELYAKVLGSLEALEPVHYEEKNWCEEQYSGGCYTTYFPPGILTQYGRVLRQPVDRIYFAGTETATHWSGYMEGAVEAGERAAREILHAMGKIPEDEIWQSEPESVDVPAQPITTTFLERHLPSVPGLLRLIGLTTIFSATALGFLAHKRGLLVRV
Briefly: biochemical. In kind it is cell-based.
Description: Inhibition of human MAOB expressed in baculovirus-infected BTI insect cells assessed as H2O2 production by resorufin dye based fluorimetric method

Take `COc1ccc(C(=O)/C=C/c2ccc(C)cc2)cc1`: the Ki in test [1] came out at 0.56 µM; in test [2], 14.9 µM.
Consider `COc1ccc(/C=C/C(=O)c2ccc(Br)cc2)cc1`, for which the Ki was determined as 0.1 µM in test [1] and 5.55 µM in test [2].
As to `Cc1ccc(/C=C/C(=O)c2cc(Cl)ccc2O)cc1`, the values for the Ki in test [1] and in test [2] were 0.14 µM and 7.22 µM, respectively.
The like results for `Cc1ccc(/C=C/C(=O)c2cc(Br)ccc2O)cc1` were, in that order, 0.13 µM and 4.22 µM.
The corresponding values for `Cc1cccc(/C=C/C(=O)c2ccc(Cl)cc2)c1` are 0.16 µM and 7 µM.
The like results for `Cc1ccc([C@H]2CC(c3cc(Cl)ccc3O)=NN2C(=O)c2ccncc2)cc1` were, in that order, 0.6 µM and 5.23 µM.
For `Cc1ccc([C@H]2CC(c3cc(Cl)ccc3O)=NN2C(=O)c2ccco2)cc1`, the Ki in test [1] turned out to be 0.11 µM; in test [2], 0.99 µM.
As to `Cc1ccc([C@H]2CC(c3cc(Cl)ccc3O)=NN2C(=O)c2ccccc2)cc1`, the Ki in test [1] worked out at 0.012 µM; in test [2], 0.75 µM.
In test [1], `COc1ccc(C(=O)N2N=C(c3cc(Cl)ccc3O)C[C@@H]2c2ccc(C)cc2)cc1` registered an inhibition constant (Ki) of 4.67 µM.
With `Cc1ccc([C@H]2CC(c3cc(Cl)ccc3O)=NN2C(=O)c2snnc2C)cc1`, the inhibitory constant (Ki) in test [1] came out at 0.24 µM; in test [2], 72 µM.
The corresponding values for `Cc1ccc([C@H]2CC(c3cc(Br)ccc3O)=NN2C(=O)c2ccncc2)cc1` are 0.18 µM and 2 µM.
For the compound `Cc1ccc([C@H]2CC(c3cc(Br)ccc3O)=NN2C(=O)c2ccco2)cc1`, the values for the inhibition constant (Ki) in test [1] and in test [2] were 0.45 µM and 14 µM, respectively.
In the case of `Cc1ccc([C@H]2CC(c3cc(Br)ccc3O)=NN2C(=O)c2ccccc2)cc1`, the Ki in test [1] was determined as 0.04 µM. This counts as double-digit nanomolar.
On the same count and under the same terms, the figure for `COc1ccc(C(=O)N2N=C(c3cc(Br)ccc3O)C[C@@H]2c2ccc(C)cc2)cc1` is 79.2 µM.
Take `Cc1ccc([C@H]2CC(c3cc(Br)ccc3O)=NN2C(=O)c2cccs2)cc1`: the inhibition constant (Ki) came to 0.13 µM in test [1] and 1640 µM in test [2].
The corresponding values for `COc1ccc(/C=C/C(=N\NC(=O)c2ccc(OC)cc2)c2ccc(Br)cc2)cc1` are 0.045 µM and 0.98 µM.
The corresponding values for `COc1ccc(/C=C/C(=N\NC(=O)c2ccco2)c2ccc(Br)cc2)cc1` are 0.091 µM and 0.7 µM.
The corresponding values for `Cc1ccc(/C=C/C(=N\NC(=O)c2cccs2)c2ccc(Cl)cc2)cc1` are 0.034 µM and 0.52 µM.
Consider `Cc1ccc(/C=C/C(=N/NC(=O)c2snnc2C)c2ccc(Cl)cc2)cc1`, for which the Ki in test [1] is 0.012 µM; in test [2], 0.76 µM.
For `Cc1cccc(/C=C/C(=N/NC(=O)c2snnc2C)c2ccc(Cl)cc2)c1`, the Ki in test [1] was 0.01 µM; in test [2], 0.99 µM.
As to `COc1ccc(/C=C/C(=N/NC(=O)c2snnc2C)c2ccc(Cl)cc2)cc1`, the Ki stood at 0.012 µM in test [1] and 1.05 µM in test [2].
`COc1ccc(/C=C/C(=N\NC(=O)c2ccc(OC)cc2)c2ccc(Cl)cc2)cc1` registered an inhibition constant Ki in test [1] of 0.034 µM. That is a double-digit nanomolar value.
`Cc1ccc(/C=C/C(=N/NC(=O)c2snnc2C)c2ccc(O)cc2)cc1`: the inhibition constant Ki in test [1] was 0.01 µM; in test [2], 1.48 µM.
Regarding `COc1ccc(C(/C=C/c2ccc(C)cc2)=N\NC(=O)c2snnc2C)cc1`, the figures for the inhibition constant (Ki) in test [1] and in test [2] were 0.041 µM and 0.9 µM, respectively.
Turning to `COc1ccc(/C=C/C(=O)c2ccc(Cl)cc2)cc1`, the Ki in test [1] was found to be 0.24 µM; in test [2], 13.9 µM.
The like results for `Cc1ccc(/C=C/C(=O)c2ccc(Cl)cc2)cc1` were, in that order, 0.24 µM and 7.7 µM.
In test [1], `Cc1ccc(/C=C/C(=O)c2ccc(O)cc2)cc1` came in with a Ki of 0.6 µM.

As usually defined, the Ki is a dissociation constant, usually derived from enzyme kinetics or from competition with a known ligand. A low value points to a stronger hold on the target.
